Here are results for five compounds from publication PMC4510133 (PLoS ONE, 2015).

A word on the Kd: it is a measure of binding affinity in units of concentration. As a reminder, the Km is the concentration of substrate that gives half-maximal velocity.

Values joined by “and” are separate entries in the source; they are usually repeats but may differ in a detail not shown here. Equal values may be shown once. Read-outs that look alike come from different tables or passages of the source.

For assay [1], the target named is T1, spinach Rubisco (Spinacia oleracea, UniProt P00875). In words: Radiolabelled [3H]-(±)-ABA binding assay (saturation and competition). Set-up: Commercially available Rubisco from spinach (Sigma-Aldrich); catalogue # R8000; purchased Sigma-Aldrich R8000. The conditions noted are these: 25 nM [3H]-(±)-ABA. Here is the method: A fresh aliquot of this Rubisco was subsequently dissolved in binding buffer (50 mM bicine, 15 mM MgCl2, 20 mM NaCl, pH 7.9) and placed on ice. The total volume for each assay sample was 30 μL. Protein solution (30 μg protein) was mixed with [^3H]-(±)-ABA (specific activity 37 Ci mmol^-1 radiolabelled: non-radiolabelled ratio 1.8:1) at the indicated concentrations in the presence and absence of 500 μM (+)-ABA, incubated at RT for 30 minutes. Samples (15 μL) from each reaction were transferred into SPN columns (G-biosciences), to which 100 μL of cold OrgoSol^TM buffer (chilled at -20°C) was added. The columns were spun at 10,000 x g for 10 s and the wash repeated once. The matrix of each SPN column was then removed and placed in scintillation vials containing Aqasol^TM scintillation fluid and soaked for at least 24 hours prior to counting radioactivity using a Beckman Coulter Multi-Purpose Scintillation Counter. Control samples not containing the protein, but treated with [^3H]-(±)-ABA, were also prepared and values subtracted from experimental samples. Signal corresponding to specific [^3H]-(±)-ABA binding was calculated from the difference between samples with [^3H]-(±)-ABA and those containing 1000-fold excess of non-radiolabelled (+)-ABA. Each sample was replicated 5–10 times and readings averaged. Competition was performed as described above, with the concentration of [^3H]-(±)-ABA at 25 nM in all samples, and non-radiolabeled (+)-ABA added at the indicated concentrations. The same procedure was applied using non-radiolabeled (-)-ABA, PA (phaseic acid), and trans-ABA. Values obtained for the same experiment washed with a 10,000 fold excess of unlabelled (±)-ABA were subtracted to account for any non-specific binding.

Assay [2] addresses non-activated Rubisco. Set-up: method as in earlier work. Conditions: 1 unit / mg ref 49, read-out: Kd by ITC; cited from earlier work. For orientation: Isothermal titration calorimetry measures the heat released or taken up as one component is titrated into another.
In assay [3] the target is non-activated Rubisco. Also noted: method as in PMID 6417133. Conditions: non-activated Rubisco ref 13; read-out: KD, radiolabelled binding assay; cited from earlier work.
The target of assay [4] is T1, spinach Rubisco. In words: Isothermal titration calorimetry. Conditions: for stoichiometry (n) by ITC: 20°C, Independent binding model.
Assay [5] deals with activated Rubisco. The conditions noted are these: read-out: Km, activated Rubisco-RuBP complex; activated Rubisco ref 13; cited from earlier work.
The target in assay [6] is T1, spinach Rubisco. The assay is described as follows: Rubisco activation (carbamylation), initial rate analysis with non-activated enzyme. Set-up: Commercially available Rubisco from spinach (Sigma-Aldrich); catalogue # R8000; purchased Sigma-Aldrich R8000. The format is biochemical. Here is the method:
Commercially available Rubisco from spinach (Sigma-Aldrich; catalogue # R8000; S1 Fig; specific activity 0.05 units / mg) was dissolved in a buffer containing 15 mM MgCl2 and 25 mM NaHCO3 at pH 8.0 for activation. Each assay (total volume, 1.0 mL) contained 50 mM Bicine (pH 8.0), 15 mM MgCl2, 10 mM NaCl, 5 mm DTT, 5 mM phosphocreatine, 5 mM ATP, 5 mM phosphoenolpyruvate, and 25 mM NaHCO3. This mixture was prepared before each set of experiments. Five minutes before initiating the reaction with the addition of activated Rubisco, the following were added: RuBP at the indicated concentrations), 0.4 mM NADH, 20 units mL-^-1 of glyceraldehyde-3-phosphate dehydrogenase, 20 units mL-^-1 of 3-phosphoglycerate kinase, and 2 units mL^-1 of creatine phosphokinase. Following the addition of activated Rubisco to a final concentration of 0.3 mg mL^-1, the NADH concentration was measured spectrophotometrically (λ = 340 nm) at 5 s intervals for 5 min. Absorbance values were converted to NADH concentrations using an extinction coefficient of 6.22 mM^-1. Reaction rates were evaluated from the slope of absorbance vs. time curves and plotted against concentration of RuBP. […] The non-activated Rubisco was then pre-incubated on ice for at least 10 minutes with or without the indicated concentrations of (+)-ABA, and the reactions initiated and monitored as described above. […]

In assay [7] the target is ABA-receptor (PYL5). Conditions: PYL5 ref 48; read-out: Kd by ITC; cited from earlier work.

With `CC1=CC(=O)CC(C)(C)[C@]1(O)/C=C/C(C)=C\C(=O)O` [(-)-ABA], the “Competition: displacement of [3H]-(±)-ABA by non-radiolabeled compound” value (“Competition … by non-radiolabeled compound” for short) in assay [1] is “equally effective as competitors”.

Take `CC(=C/C(=O)O)/C=C/[C@]1(O)[C@@]2(C)CO[C@]1(C)CC(=O)C2` [PA, phaseic acid]: in assay [1], the “Competition … by non-radiolabeled compound” value was “ineffective as competitors”.

Take `O=C(COP(=O)(O)O)[C@H](O)[C@H](O)COP(=O)(O)O` [RuBP, ribulose-1,5-bisphosphate]: the results for the Kd in assay [2], in assay [3] and in assay [4] were 300 nM, 21 nM and 31400 nM, respectively. Besides, in assay [4], the “stoichiometry (n) by ITC” value stood at 2.5. Also, in assay [5], the Km was 21 µM.

Consider `CC1=CC(=O)CC(C)(C)[C@@]1(O)/C=C/C(C)=C/C(=O)O` [trans-(+)-ABA], for which, in assay [1], the “Competition … by non-radiolabeled compound” value is given as “ineffective as competitors”.

In the case of Abscisic acid [(+)-ABA], the “effect on initial rate (activation)” value in assay [6] (100-250 μM (+)-ABA, 7 mM NaHCO3, S3 Fig, no effect on equilibrium rate (catalysis)) is “inhibitory effect”. Also, the “potency on Rubisco activation versus Rubisco catalysis” value in assay [6] (ratio of Ki values) is recorded as “more than 10 fold”. Also, the “Competition … by non-radiolabeled compound” value in assay [1] is on record as “equally effective as competitors”. Moreover, the “stoichiometry (n) by ITC” value in assay [4] was 19.9 and 19. Also, in assay [7], the Kd is 1200 nM.
